Inhibition data for four molecules are collected here from patent US12624066B2, “Inhibitors of coronavirus protease” (SUNSHINE BIOPHARMA INC., priority 2020, dated 2026).

Structures are written as SMILES. Square brackets hold non-standard residues; d marks the D form. Peptide text beside a SMILES is read from it.

The assay deals with SARS-CoV-2-PLpro enzyme (Severe acute respiratory syndrome coronavirus 2, UniProt P0DTD1). The assay is described as follows: SARS-CoV-2-PLpro enzyme inhibition assay. As to conditions: read-out: Percent inhibition. Type of assay: biochemical. How it is done:
The inhibition assay was carried out as follows. 1 μM SARS-CoV-2-PLpro enzyme was incubated with 25 μM Arg-Leu-Arg-Gly-Gly-AMC substrate and 100 μM of the inhibitor peptide tested, in reaction buffer (100 mM NaCl, 50 mM HEPES [pH=7.5], 0.01 mg/mL bovine serum albumin, and 5 mM DTT) to a final volume of 50 μL. A control reaction with no inhibitory peptide was included and serves as the basis for “no inhibition”. Each reaction was carried in triplicate. The percentage inhibition was calculated by […].

For orientation: inhibition means the share of the control response that was lost under treatment. For `CC(C)C[C@@H](NC(=O)[C@@H](N)CCCNC(=N)N)C(=O)N[C@@H](CCCCN)C(=O)NCC(=O)NCC(=O)O` [Arg - Leu - Lys - Gly - Gly] (H-R[dL]KGG-OH), the inhibition at 100 µM lay in the range of 5 to 10%.

Take `CC(C)C[C@@H](NC(=O)[C@@H](N)CO)C(=O)N[C@@H](CCCCN)C(=O)NCC(=O)NCC(=O)O` [Ser - Leu - Lys - Gly - Gly] (H-S[dL]KGG-OH): the inhibition at 100 µM stood at 0%.

In the case of `CC(C)C[C@@H](NC(=O)[C@@H](N)CCC(=O)O)C(=O)N[C@@H](CC(N)=O)C(=O)NCC(=O)NCC(=O)O` [Glu - Leu - Asn - Gly - Gly] (H-E[dL]NGG-OH), the inhibition at 100 µM came to 0%.

Consider `CC(C)C[C@@H](NC(=O)[C@@H](N)CCCNC(=N)N)C(=O)N[C@@H](CCCNC(=N)N)C(=O)NCC(=O)NCC(=O)O` [Arg - Leu - Arg - Gly - Gly], for which the inhibition at 100 µM was in the range of 10 to 15%.
